A short description of this data set: Occupational exposure assessment (full monograph) of the final product. The conditions noted are these: final crystalline cidofovir dihydrate product; remains within category band 5 (safebridge category 3). An excerpt: A full monograph for the final crystalline cidofovir dihydrate product (compound 9) has been completed and it was confirmed that, with an OEL of 0.6 μgm^−3, the product remains within category band 5 (safebridge category 3).

For `Nc1ccn(C[C@@H](CO)OCP(=O)(O)O)c(=O)n1` [compound 9, cidofovir dihydrate], the OEL turned out to be 0.6 μgm^−3.

For the origin of these results see US9505792B2, “Forms of cidofovir” (Johnson Matthey Public Limited Company, priority 2011, dated 2016).
